Reference: ChEMBL document CHEMBL1759836, “Microwave assisted one-pot synthesis of highly potent novel isoniazid analogues” (Bioorg Med Chem Lett, 2011)
In brackets after ≈: the same amount, converted by molar mass.

How the values were obtained:
[1] = test system: Mycobacterium tuberculosis; test: Antimicrobial activity against Mycobacterium tuberculosis H37Rv by agar dilution method; type: functional
[2] = test system: Mycobacterium tuberculosis; test: Antimicrobial activity against multidrug-resisntat Mycobacterium tuberculosis by agar dilution method; type: functional
[3] = Cytotoxicity against african green monkey Vero cells after 72 hrs by MTT assay; type: cell-based; details: chlorocebus sabaeus
[4] = Selectivity index, ratio of CC50 for african green monkey Vero cells to MIC for Mycobacterium tuberculosis H37Rv; type: functional

With `CC1(C)CC(=O)C2=C(C1)N(NC(=O)c1ccncc1)C1=C(C(=O)CC(C)(C)C1)C2c1ccccc1` the MIC [1] was 6.66 µM (≈ 3.13 µg/mL).
Compound `Cc1ccccc1C1C2=C(CC(C)(C)CC2=O)N(NC(=O)c2ccncc2)C2=C1C(=O)CC(C)(C)C2` has an MIC [1] of 3.22 µM (≈ 1.56 µg/mL).
`Cc1cccc(C2C3=C(CC(C)(C)CC3=O)N(NC(=O)c3ccncc3)C3=C2C(=O)CC(C)(C)C3)c1` showed an MIC [1] of 6.44 µM (≈ 3.11 µg/mL).
In the case of `Cc1ccc(C2C3=C(CC(C)(C)CC3=O)N(NC(=O)c3ccncc3)C3=C2C(=O)CC(C)(C)C3)cc1`, the MIC [1] is reported as 6.44 µM (≈ 3.11 µg/mL).
With `CC1(C)CC(=O)C2=C(C1)N(NC(=O)c1ccncc1)C1=C(C(=O)CC(C)(C)C1)C2c1ccccc1O` the MIC [1] was over 12.9 µM.
`CC1(C)CC(=O)C2=C(C1)N(NC(=O)c1ccncc1)C1=C(C(=O)CC(C)(C)C1)C2c1cccc(O)c1` showed an MIC [1] of over 12.9 µM.
`CC1(C)CC(=O)C2=C(C1)N(NC(=O)c1ccncc1)C1=C(C(=O)CC(C)(C)C1)C2c1ccc(O)cc1` gave an MIC [1] of 12.9 µM (≈ 6.25 µg/mL).
In the case of `COc1ccccc1C1C2=C(CC(C)(C)CC2=O)N(NC(=O)c2ccncc2)C2=C1C(=O)CC(C)(C)C2`, the MIC [1] is reported as 12.5 µM (≈ 6.25 µg/mL).
`COc1ccc(C2C3=C(CC(C)(C)CC3=O)N(NC(=O)c3ccncc3)C3=C2C(=O)CC(C)(C)C3)cc1` gave an MIC [1] of 12.5 µM (≈ 6.25 µg/mL).
With `CN(C)c1ccc(C2C3=C(CC(C)(C)CC3=O)N(NC(=O)c3ccncc3)C3=C2C(=O)CC(C)(C)C3)cc1` the MIC [1] was 6.1 µM (≈ 3.13 µg/mL).
Work on `CC(C)c1ccc(C2C3=C(CC(C)(C)CC3=O)N(NC(=O)c3ccncc3)C3=C2C(=O)CC(C)(C)C3)cc1` yielded an MIC [1] of 1.52 µM (≈ 0.778 µg/mL).
In the case of `CC1(C)CC(=O)C2=C(C1)N(NC(=O)c1ccncc1)C1=C(C(=O)CC(C)(C)C1)C2c1ccccc1OCc1ccccc1`, the MIC [1] is reported as under 0.17 µM, the MIC [2] is reported as 0.69 µM (≈ 0.397 µg/mL) and the CC50 at 72 h [3] is reported as over 109 µM.
`CC1(C)CC(=O)C2=C(C1)N(NC(=O)c1ccncc1)C1=C(C(=O)CC(C)(C)C1)C2c1cccc(OCc2ccccc2)c1` gave an MIC [1] of 0.17 µM (≈ 0.0979 µg/mL), an MIC [2] of 1.35 µM (≈ 0.777 µg/mL) and a CC50 at 72 h [3] of over 109 µM.
In the case of `CC1(C)CC(=O)C2=C(C1)N(NC(=O)c1ccncc1)C1=C(C(=O)CC(C)(C)C1)C2c1ccc(OCc2ccccc2)cc1`, the MIC [1] is reported as 0.17 µM (≈ 0.0979 µg/mL), the MIC [2] is reported as 0.69 µM (≈ 0.397 µg/mL) and the CC50 at 72 h [3] is reported as over 109 µM.
Compound `COc1cc(C2C3=C(CC(C)(C)CC3=O)N(NC(=O)c3ccncc3)C3=C2C(=O)CC(C)(C)C3)ccc1O` has an MIC [1] of 3.02 µM (≈ 1.56 µg/mL).
In the case of `COc1ccc(C2C3=C(CC(C)(C)CC3=O)N(NC(=O)c3ccncc3)C3=C2C(=O)CC(C)(C)C3)c(OC)c1OC`, the MIC [1] is reported as 11.2 µM (≈ 6.25 µg/mL).
For `CC1(C)CC(=O)C2=C(C1)N(NC(=O)c1ccncc1)C1=C(C(=O)CC(C)(C)C1)C2c1ccccc1C(F)(F)F`, the MIC [1] was 0.36 µM (≈ 0.194 µg/mL), the MIC [2] was 1.45 µM (≈ 0.779 µg/mL) and the CC50 at 72 h [3] was over 116 µM.
`CC1(C)CC(=O)C2=C(C1)N(NC(=O)c1ccncc1)C1=C(C(=O)CC(C)(C)C1)C2c1cccc(C(F)(F)F)c1` gave an MIC [1] of 0.18 µM (≈ 0.0968 µg/mL), an MIC [2] of 1.45 µM (≈ 0.779 µg/mL) and a CC50 at 72 h [3] of over 116 µM. The “Selectivity Index” value [4] was over 645.
Work on `CC1(C)CC(=O)C2=C(C1)N(NC(=O)c1ccncc1)C1=C(C(=O)CC(C)(C)C1)C2c1ccc(C(F)(F)F)cc1` yielded an MIC [1] of 0.36 µM (≈ 0.194 µg/mL), an MIC [2] of 0.74 µM (≈ 0.398 µg/mL) and a CC50 at 72 h [3] of over 116 µM.
For `CC1(C)CC(=O)C2=C(C1)N(NC(=O)c1ccncc1)C1=C(C(=O)CC(C)(C)C1)C2c1ccc(Cl)cc1`, the MIC [1] was 0.79 µM (≈ 0.398 µg/mL), the MIC [2] was 1.54 µM (≈ 0.776 µg/mL) and the CC50 at 72 h [3] was over 124 µM.
For `CC1(C)CC(=O)C2=C(C1)N(NC(=O)c1ccncc1)C1=C(C(=O)CC(C)(C)C1)C2c1ccccc1Br`, the MIC [1] was 0.18 µM (≈ 0.0987 µg/mL), the MIC [2] was 2.84 µM (≈ 1.56 µg/mL) and the CC50 at 72 h [3] was over 114 µM.
For `CC1(C)CC(=O)C2=C(C1)N(NC(=O)c1ccncc1)C1=C(C(=O)CC(C)(C)C1)C2c1cccc(Br)c1`, the MIC [1] was 0.73 µM (≈ 0.4 µg/mL), the MIC [2] was 2.84 µM (≈ 1.56 µg/mL) and the CC50 at 72 h [3] was under 114 µM.
In the case of `CC1(C)CC(=O)C2=C(C1)N(NC(=O)c1ccncc1)C1=C(C(=O)CC(C)(C)C1)C2c1ccc(Br)cc1`, the MIC [1] is reported as 0.73 µM (≈ 0.4 µg/mL), the MIC [2] is reported as 2.84 µM (≈ 1.56 µg/mL) and the CC50 at 72 h [3] is reported as under 114 µM.
`CC1(C)CC(=O)C2=C(C1)N(NC(=O)c1ccncc1)C1=C(C(=O)CC(C)(C)C1)C2c1ccccc1F` gave an MIC [1] of 0.41 µM (≈ 0.2 µg/mL), an MIC [2] of 1.59 µM (≈ 0.775 µg/mL) and a CC50 at 72 h [3] of over 128 µM.
`CC1(C)CC(=O)C2=C(C1)N(NC(=O)c1ccncc1)C1=C(C(=O)CC(C)(C)C1)C2c1cccc(F)c1` gave an MIC [1] of 0.41 µM (≈ 0.2 µg/mL), an MIC [2] of 0.82 µM (≈ 0.4 µg/mL) and a CC50 at 72 h [3] of over 128 µM.
In the case of `CC1(C)CC(=O)C2=C(C1)N(NC(=O)c1ccncc1)C1=C(C(=O)CC(C)(C)C1)C2c1ccc(F)cc1`, the MIC [1] is reported as 0.2 µM (≈ 0.0975 µg/mL), the MIC [2] is reported as 0.2 µM (≈ 0.0975 µg/mL) and the CC50 at 72 h [3] is reported as over 128 µM.
Compound `CC1(C)CC(=O)C2=C(C1)N(NC(=O)c1ccncc1)C1=C(C(=O)CC(C)(C)C1)C2c1ccccc1[N+](=O)[O-]` has an MIC [1] of 0.19 µM (≈ 0.0978 µg/mL), an MIC [2] of 1.51 µM (≈ 0.777 µg/mL) and a CC50 at 72 h [3] of under 121 µM.
Compound `CC1(C)CC(=O)C2=C(C1)N(NC(=O)c1ccncc1)C1=C(C(=O)CC(C)(C)C1)C2c1cccc([N+](=O)[O-])c1` has an MIC [1] of 0.77 µM (≈ 0.396 µg/mL), an MIC [2] of 3.03 µM (≈ 1.56 µg/mL) and a CC50 at 72 h [3] of under 121 µM.
Compound `CC1(C)CC(=O)C2=C(C1)N(NC(=O)c1ccncc1)C1=C(C(=O)CC(C)(C)C1)C2c1ccc([N+](=O)[O-])cc1` has an MIC [1] of 0.77 µM (≈ 0.396 µg/mL), an MIC [2] of 3.03 µM (≈ 1.56 µg/mL) and a CC50 at 72 h [3] of under 121 µM.
With `NNC(=O)c1ccncc1` [ISONIAZID] the MIC [1] was 0.73 µM (≈ 0.1 µg/mL), the MIC [2] was 45.6 µM (≈ 6.25 µg/mL) and the CC50 at 72 h [3] was over 456 µM.
